Entries after “also recorded” stand apart in the source; their conditions may differ.
Columns and labels:
[1] = tested on: MDA-MB-468 cells; test: Cell based ROS scavenging assay; conditions: then RB4 10 μM 1 h, US 1 MHz, 1 W/cm^2, 30 s, MTS one day later; for protective effect of ROS scavenger: scavenger pretreatment 30 min
Experimental: Ceil based ROS scavenging assay: MDA-MB-468 cells (5×10^4) were treated with free radical scavengers, L-histidine (10 mM), D-mannitol (100 mM), N-acetyl cysteine (NAC, 0.5 mM), and superoxide dismutase (SOD, 100 μg/mL) for 30 minutes. The treated cells were then incubated with fresh media containing RB4 (10 μM) for an hour. After incubation, the wells were insonated (1 MHz, 1 W/cm^2, 30 sec, 100% DC) as described above. One day later, the cell's viability was assessed using the MTS solution.

[2] = tested on: MDA-MB-468 cells; test: Mechanistic study of death process by flow cytometry (Annexin V / propidium iodide); format: cell-based; conditions: RB4 10 μM + US 1 MHz, 1 W/cm^2, 30 s; one day after treatment
Experimental: Mechanistic study of death process by flow cytometry: MDA-MB-468 cells (5×10^4) were incubated in complete media with or without 10 μM RB4 for 1 hour prior to ultrasound treatment. Then the plates were insonated at 1 MHz, 1 W/cm^2, 30 sec, 100% duty cycle. Following treatment, cells were re-incubated for 1 day, 4 groups of cells (Control, RB4 alone, ultrasound alone, and RB4 combined with ultrasound) were collected and washed twice with pre-cooled PBS. Cells were stained with FITC-conjugated Annexin-Y and propidium iodide for 15 minutes as per the manufacture's instructions, and then analyzed by flow cytometry. The percentage of dead cells and those undergoing apoptosis were analyzed using flow ‘cytometry’ analysis software.

[3] = tested on: HT1080, fibrosarcoma; test: Sono-sensitivity of RB4 in a second cell line; format: cell-based; conditions: RB4 + ultrasound
[4] = tested on: MDA-MB-468 xenograft tumor; test: In vivo SMRT effect with intra-tumoral injected RB4, histochemical analysis; parameters: species or system BALB/c Nu/Nu female nude mice; conditions: two days after treatment
Experimental: (§1) In vivo SMRT effect with intra-tumoral injected RB4: MDA-MB-468 cells (10^7, 0.1 mL PBS) were subcutaneously inoculated into both flanks of BALB/c Nu/Nu female nude mice (5-6 weeks). The RB4 injections and ultrasound therapies were performed when the tumors had grown to approximately 4-5 mm in diameter, 20-22 days after inoculation. The tumors were treated with RB4 (10 μM, 50 μl) only, ultrasound only (1 MHz, 1 W cm2, 100% DC, 3 minutes), and a RB4-ultrasound combination (n=5), Under isoflurane anesthesia, RB4 was directly injected to the tumors of the mice. The ultrasound treatment was then performed immediately after the injection of RB4, with same transducer size. The same RB4-ultrasound treatment was performed on the thigh muscles of the mice. Histochemical analysis: Tumors and muscle tissue were harvested 2 days after therapy and the specimens were fixed in 10% formalin, cut in half, and embedded in paraffin. The paraffin sections (7 μm thick) were stained with hematoxylin-eosin (H&E). ImageJ 1.48 was used to measure the size of whole tumor and necrotic areas in the tumors.

[5] = Chemical ROS assay (DCFH-DA) in solution under insonation; conditions: RB4 + DCFH solution insonated with different ultrasound powers, 30 s
Experimental: Chemical ROS assay: To study the insonation induced ROS generation in solution, RB4 was tested using a modified 2′, 7′-dichlorofluorescin diacetate (DCFH-DA) assay. DCFH-DA (1 ml, 1 mM in MeOH) was hydrolyzed in NaOH aqueous solution (0.01N, 4 mL) at RT for 30 minutes to yield anon-fluorescent DCFH intermediate. The solution was neutralized with 20 mL of NaH2PO4 (25 mM) and shielded with aluminum foil. The final solution of DCFH was around 40 μM. RB4 (1.0 mg) was dissolved in DMSO (1 mL) and then diluted with water into a 20 μM solution. The RB4 solution (20 μM, 10 mL) was mixed with a DCFH solution (40 μM, 10 mL) as the test solution. The test solution (0.5 mL) was placed into each well of a 24-well plate. The DCFH solution without RB4 was included as a background control. The plates were treated with ultrasound (0.4-1.2 watt/cm^2) one well by one well for 30 seconds: and the insonated wells were then checked using a fluorescence plate reader, ex 485 nm/em 520 nm.

[6] = tested on: thigh muscle (normal muscle tissue); test: Same RB4-ultrasound treatment on thigh muscle, histochemical analysis; format: in vivo, BALB/c Nu/Nu female nude mice; conditions: RB4 + US 1 MHz, 1 W/cm^2, 3 min applied to thigh muscle; two days after treatment
Experimental: as §1

[7] = tested on: MDA-MB-468 cells; test: Sonotoxicity with RB4: microscopy and MTS viability assay at 24 hours; format: cell-based
Experimental: Sonotoxicity with RB4: MDA-MB-468 ceils (5×10^4) in 24 well plates were incubated in complete media with 10 μM RB4 for 1 hour prior to the ultrasound treatment. The plates were then placed on a pre-cut gel pad (2 cm×3 cm) with multipurpose ultrasound gel over a mounted handheld ultrasound transducer (5 cm^2) at 1 MHz, 1 W/cm^2 for 30 s, 100% DC. Cells were checked under an EVOS® FL Auto Cell Imaging system microscope. Cell viability at 24 hours was quantitated using an MTS assay. The plate was incubated at 37° C. for 4 hours. Absorbance was measured at 490 nm using a microplate reader.

[8] = tested on: MDA-MB-468; test: Toxicity of RB4 to cells (IC50); format: cell-based; conditions: Homo sapiens, RB4 alone
[9] = tested on: MDA-MB-468 breast cancer xenograft tumor; test: In vivo SMRT effect using preloaded tumor cells
Experimental: In vivo sono-membrane rupture therapy (SMRT) effect using preloaded tumor cells: MDA-MB-468 cells were suspended in PBS or RB4 (10 μM) in PBS for 1 day. The cells (5×10^6, 0.1 mL) were subcutaneously injected into both flanks. The left tumors, which were only treated with PBS, were the internal control; while the right tumors were treated with RB4 (10 μM) only, ultrasound only (1 MHz, 1 W/cm^2, 100% DC, 3 minutes), or an RB4-ultrasound combination (n=7). The transducer size was 0.75 cm^2. Tumor size was measured with slide calipers on days 7,10, 14,17,21,24, 28, and 36.

[10] = Absorption and emission spectra; format: physicochemical
[11] = tested on: HT-1080; test: Toxicity of RB4 to cells (IC50); format: cell-based; conditions: Homo sapiens, RB4 alone

## OC[C@@H](O)[C@@H](O)[C@H](O)[C@H](O)CO [D-mannitol]
[1]
  protective effect of ROS scavenger: none, with the exception of NAC, showed any protective effects

## N[C@@H](Cc1c[nH]cn1)C(=O)O [L-histidine]
[1]
  protective effect of ROS scavenger: none, with the exception of NAC, showed any protective effects

## CC(=O)N[C@@H](CS)C(=O)O [NAC, N-acetyl cysteine]
[1]; scavenger pretreatment 30 min (NAC 0.5 mM)
  fraction of cells rescued from RB4 and ultrasound combination treatment: ~20%
[1]
  protective effect of ROS scavenger: able to rescue a fraction of cells

## O=C(NCCO)c1c(Cl)c(Cl)c(Cl)c(Cl)c1-c1c2cc(I)c(=O)c(I)c-2oc2c(I)c(O)c(I)cc12 [RB4, 2,3,4,5-tetrachloro-6-(6-hydroxy-2,4,5,7-tetraiodo-3-oxo-3H-xanthen-9-yl)-N-(2-hydroxyethyl)-benzamide]
[2]
  PI positive cells: 3%
  annexin positive cells: 8%
  annexin/PI double positive cells: 36%
[3]
  cells killed: 95%
[4]; RB4 50 μL, 10 μM intratumoral + US 1 MHz, 1 W/cm^2, 3 min
  necrotic area: ~40%
[4]; RB4 50 μl, 10 μM intratumoral + US 1 MHz, 1 W/cm^2, 3 min
  necrosis on HE staining (in words): A large necrotic area
[4]; RB4 alone 50 μl, 10 μM intratumoral
  tissue damage on HE staining (in words): Little effect; also recorded: little tissue damage
[5]
  ROS level of RB4 solution: not significantly different from the background level
[6]
  damage to normal muscle tissue: maintained their normal structures without damage; also recorded: no damaged cells were found
[7]; RB4 10 μM 60 min + ultrasound 1 MHz, 1 W/cm^2, 30 s, viability one day later
  cells killed: over 90%
[7]; RB4 10 μM + ultrasound 1 MHz, 1 W/cm^2, 30 s
  cell damage in microscopic images: significant damage
[7]; RB4 alone 10 μM, 60 min, no ultrasound, MTS one day later
  cell viability: > 80 % viable
[7]; RB4 alone 10 μM, versus untreated
  cell damage in microscopic images: Little difference
[8]
  IC50: 71 µM
[9]; RB4 10 μM + US 1 MHz, 1 W/cm^2, 3 min, N=7
  tumor growth inhibition (in words): significant growth arrest
[9]; RB4 10 μM preloaded cells + US 1 MHz, 1 W/cm^2, 3 min, up to 36 days
  average tumor size relative to control untreated tumor: about 20%
[9]; RB4 alone 10 μM
  tumor growth inhibition (in words): about the same as the untreated group; also recorded: no appreciable inhibition effect
[9]; RB4 alone (cells pre-incubated with 10 μM for 1 day), up to 36 days
  growth rate ratio of treated vs. untreated tumors: ≈ 1
[10]
  absorption and emission (in words): neither absorption nor emission above 400 nm
[11]
  IC50: 157 µM

## O=C1OC2(c3cc(I)c(O)c(I)c3Oc3c2cc(I)c(O)c3I)c2c(Cl)c(Cl)c(Cl)c(Cl)c21 [RB, Rose Bengal]
[10]
  absorption maximum: 549 nm
  emission maximum: 565 nm

## superoxide dismutase
[1]
  protective effect of ROS scavenger: none, with the exception of NAC, showed any protective effects
